The structures appear in SMILES notation. Calls of active or inactive are those of the source.

The subject of test [1] is Streptococcus sp. 'group A'. Put plainly: Streptococcus pyogenes SK(-)GAS viability under kanamycin – luminescence, BacTiterGlo, confirmation, counter-screen for streptokinase expression inhibitor project, dose response (AID 1900). The format is functional, organism-based. In general terms: The purpose of a counterscreen is to sort out artefacts and off-target activity.

The target in test [2] is Disintegrin and metalloproteinase domain-containing protein 17 (Homo sapiens, UniProt P78536). Put plainly: inhibition of ADAM17 substrate cleavage – biochemical, quenched FRET substrate, counter-screen for ADAM10 exosite inhibitor project, dose response (AID 743253).
A short description of test [3]: potency of ADAM10 substrate cleavage blockers – biochemical, QFRET, dose response (AID 743254).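 Further: ADAM10 enzyme with the DM2 quenched FRET peptide as substrate; EDANS fluorescence gain as the protease cuts the substrate; inhibitor potency against ADAM10 proteolytic activity.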
Another test has as its system Streptococcus. Briefly: GAS UMAA2166 growth inhibition – luminescence, BacTiterGlo, counter-screen for streptokinase expression inhibitor project, dose response (AID 1915).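 Further: potency for reduction of bacterial viability or growth.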 The format is functional, organism-based.
Test [4] addresses T1, Fatty acid synthase (Homo sapiens, UniProt P49327). Briefly: inhibition of human FAS-TE enzyme activity – biochemical, endpoint fluorescence intensity, uHTS hits, dose response (AID 624327).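 Further: fluorescence from hydrolysis of an O-methyl fluorescein acyl ester substrate by the enzyme.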 The format is functional.
Test [5] has as its target T1, Fatty acid synthase. Briefly: inhibition of human FAS-TE enzyme activity – biochemical, kinetic fluorescence intensity, dose response (AID 624326).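 Further: rate of fluorescence rise from hydrolysis of a fluorogenic O-methyl fluorescein ester substrate.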 The format is functional.
For another test, the target named is T2, Streptokinase A (Streptococcus pyogenes serotype M1, UniProt P10520).
T2 sequence (P10520 whole entry): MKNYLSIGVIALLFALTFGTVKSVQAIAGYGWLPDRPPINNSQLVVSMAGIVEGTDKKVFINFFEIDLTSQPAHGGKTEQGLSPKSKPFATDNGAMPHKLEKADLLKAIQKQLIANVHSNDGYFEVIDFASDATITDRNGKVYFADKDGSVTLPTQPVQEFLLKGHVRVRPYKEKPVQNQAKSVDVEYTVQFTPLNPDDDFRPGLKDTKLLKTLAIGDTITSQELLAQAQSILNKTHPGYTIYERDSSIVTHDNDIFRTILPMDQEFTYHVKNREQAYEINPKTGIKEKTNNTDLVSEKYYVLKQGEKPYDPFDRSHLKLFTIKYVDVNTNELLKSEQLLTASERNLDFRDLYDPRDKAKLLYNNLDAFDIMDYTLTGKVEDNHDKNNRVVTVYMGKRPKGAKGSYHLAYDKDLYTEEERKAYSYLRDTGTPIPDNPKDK
Briefly: viability-normalized secreted streptokinase activity reduction – plasminogen activation absorbance, OD405, dose response (AID 1914).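 Further: secreted streptokinase activity via plasminogen activation per viability signal from cell pellet.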 The format is functional, Streptococcus pyogenes M1 GAS.

For a further test, the target named is Protein Tat (Human immunodeficiency virus type 1 group M subtype B (isolate HXB2)(HIV-1), UniProt P04608). The test is classed as functional.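 Further: tat binding to TAR RNA read out by fluorescence polarization.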
The next test has as its target fMet-Leu-Phe receptor (Homo sapiens, UniProt P21462). Briefly: formyl peptide receptor binders – dose response (AID 519). The format is functional.
Test [6] can be described thus: cells.
Test [7] can be described thus: IC50 of Artemis nuclease activity blockers – biochemical, fluorescence intensity, dose response (AID 720701).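 Further: Artemis endonuclease enzyme.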 The test is classed as functional.
Test [8] deals with COUP transcription factor 2 (Homo sapiens, UniProt P24468). Briefly: Luminescence-based cell-based high throughput dose response assay to identify inhibitors of COUP-TFII (NR2F2). The format is functional.
Test [9] in a line: loss of viability in HepG2 cells – cell-based, CellTiter-Glo, cherry-picked, cytotoxicity control for Shn3 inhibitor project, dose response (AID 624134). The format is functional. A general note: Cellular ATP, detected with luciferase, serves as a proxy for viable cell number.
In another test the target is Protein Wnt-3a (Mus musculus, UniProt P27467). Briefly: antagonism of Wnt3a pathway luciferase reporter – Wnt-LIGHT cells, luminescence, selectivity assay for Gli-SUFU antagonist project, dose response (AID 651570).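 Further: Wnt-LIGHT reporter cells stimulated with conditioned medium from Wnt3a-producing cells.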 As to conditions: read-out: IC50_Mean. The test is classed as functional. (In general: Reporter assays use an easily measured gene product as a stand-in for the process of interest.)

The nature of test [10]: non-specific 3'UTR reporter inhibition in Clone20-Shn3RL – cell-based, Renilla luciferase, cherry-picked, counter-screen for Shn3 inhibitor project, dose response (AID 624133). The test is classed as functional.
A short description of test [11]: cells. The test is classed as functional, cell-based. The following applies: HEK-CNG.
A short description of test [12]: reduction of Shn3 3'UTR-driven luciferase in osteoblasts – cell-based, Clone20 osteoblasts, firefly luciferase, cherry-picked, dose response (AID 624132).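 Further: firefly luciferase luminescence from reporter carrying the Shn3 3'UTR in osteoblasts.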 The format is functional.
The next test deals with T3, Galanin receptor type 3 (Homo sapiens, UniProt O60755).
T3 sequence (O60755 whole entry): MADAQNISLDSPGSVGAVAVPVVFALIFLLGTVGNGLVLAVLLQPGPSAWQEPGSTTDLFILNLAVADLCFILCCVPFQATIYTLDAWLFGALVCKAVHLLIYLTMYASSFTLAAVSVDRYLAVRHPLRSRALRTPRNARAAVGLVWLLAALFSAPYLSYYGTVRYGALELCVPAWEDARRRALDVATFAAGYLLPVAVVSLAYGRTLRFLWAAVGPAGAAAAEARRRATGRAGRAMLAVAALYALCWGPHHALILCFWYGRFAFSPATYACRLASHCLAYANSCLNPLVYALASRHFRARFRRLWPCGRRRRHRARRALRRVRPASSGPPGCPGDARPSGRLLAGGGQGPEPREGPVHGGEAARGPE
Briefly: Fluorescence-based cell-based primary high throughput dose response assay to identify antagonists of the Galanin Receptor 3 (GalR3). The format is functional.

Sequence of fMet-Leu-Phe receptor (P21462 whole entry): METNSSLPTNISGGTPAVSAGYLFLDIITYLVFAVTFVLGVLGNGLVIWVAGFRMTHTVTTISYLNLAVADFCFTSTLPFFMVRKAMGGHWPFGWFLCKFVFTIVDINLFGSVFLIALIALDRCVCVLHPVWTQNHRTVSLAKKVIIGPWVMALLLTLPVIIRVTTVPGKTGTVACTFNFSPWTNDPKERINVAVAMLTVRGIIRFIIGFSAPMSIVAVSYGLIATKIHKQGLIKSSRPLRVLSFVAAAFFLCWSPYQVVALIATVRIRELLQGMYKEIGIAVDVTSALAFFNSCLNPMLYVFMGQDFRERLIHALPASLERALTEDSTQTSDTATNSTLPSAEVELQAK
T1 sequence (P49327 whole entry): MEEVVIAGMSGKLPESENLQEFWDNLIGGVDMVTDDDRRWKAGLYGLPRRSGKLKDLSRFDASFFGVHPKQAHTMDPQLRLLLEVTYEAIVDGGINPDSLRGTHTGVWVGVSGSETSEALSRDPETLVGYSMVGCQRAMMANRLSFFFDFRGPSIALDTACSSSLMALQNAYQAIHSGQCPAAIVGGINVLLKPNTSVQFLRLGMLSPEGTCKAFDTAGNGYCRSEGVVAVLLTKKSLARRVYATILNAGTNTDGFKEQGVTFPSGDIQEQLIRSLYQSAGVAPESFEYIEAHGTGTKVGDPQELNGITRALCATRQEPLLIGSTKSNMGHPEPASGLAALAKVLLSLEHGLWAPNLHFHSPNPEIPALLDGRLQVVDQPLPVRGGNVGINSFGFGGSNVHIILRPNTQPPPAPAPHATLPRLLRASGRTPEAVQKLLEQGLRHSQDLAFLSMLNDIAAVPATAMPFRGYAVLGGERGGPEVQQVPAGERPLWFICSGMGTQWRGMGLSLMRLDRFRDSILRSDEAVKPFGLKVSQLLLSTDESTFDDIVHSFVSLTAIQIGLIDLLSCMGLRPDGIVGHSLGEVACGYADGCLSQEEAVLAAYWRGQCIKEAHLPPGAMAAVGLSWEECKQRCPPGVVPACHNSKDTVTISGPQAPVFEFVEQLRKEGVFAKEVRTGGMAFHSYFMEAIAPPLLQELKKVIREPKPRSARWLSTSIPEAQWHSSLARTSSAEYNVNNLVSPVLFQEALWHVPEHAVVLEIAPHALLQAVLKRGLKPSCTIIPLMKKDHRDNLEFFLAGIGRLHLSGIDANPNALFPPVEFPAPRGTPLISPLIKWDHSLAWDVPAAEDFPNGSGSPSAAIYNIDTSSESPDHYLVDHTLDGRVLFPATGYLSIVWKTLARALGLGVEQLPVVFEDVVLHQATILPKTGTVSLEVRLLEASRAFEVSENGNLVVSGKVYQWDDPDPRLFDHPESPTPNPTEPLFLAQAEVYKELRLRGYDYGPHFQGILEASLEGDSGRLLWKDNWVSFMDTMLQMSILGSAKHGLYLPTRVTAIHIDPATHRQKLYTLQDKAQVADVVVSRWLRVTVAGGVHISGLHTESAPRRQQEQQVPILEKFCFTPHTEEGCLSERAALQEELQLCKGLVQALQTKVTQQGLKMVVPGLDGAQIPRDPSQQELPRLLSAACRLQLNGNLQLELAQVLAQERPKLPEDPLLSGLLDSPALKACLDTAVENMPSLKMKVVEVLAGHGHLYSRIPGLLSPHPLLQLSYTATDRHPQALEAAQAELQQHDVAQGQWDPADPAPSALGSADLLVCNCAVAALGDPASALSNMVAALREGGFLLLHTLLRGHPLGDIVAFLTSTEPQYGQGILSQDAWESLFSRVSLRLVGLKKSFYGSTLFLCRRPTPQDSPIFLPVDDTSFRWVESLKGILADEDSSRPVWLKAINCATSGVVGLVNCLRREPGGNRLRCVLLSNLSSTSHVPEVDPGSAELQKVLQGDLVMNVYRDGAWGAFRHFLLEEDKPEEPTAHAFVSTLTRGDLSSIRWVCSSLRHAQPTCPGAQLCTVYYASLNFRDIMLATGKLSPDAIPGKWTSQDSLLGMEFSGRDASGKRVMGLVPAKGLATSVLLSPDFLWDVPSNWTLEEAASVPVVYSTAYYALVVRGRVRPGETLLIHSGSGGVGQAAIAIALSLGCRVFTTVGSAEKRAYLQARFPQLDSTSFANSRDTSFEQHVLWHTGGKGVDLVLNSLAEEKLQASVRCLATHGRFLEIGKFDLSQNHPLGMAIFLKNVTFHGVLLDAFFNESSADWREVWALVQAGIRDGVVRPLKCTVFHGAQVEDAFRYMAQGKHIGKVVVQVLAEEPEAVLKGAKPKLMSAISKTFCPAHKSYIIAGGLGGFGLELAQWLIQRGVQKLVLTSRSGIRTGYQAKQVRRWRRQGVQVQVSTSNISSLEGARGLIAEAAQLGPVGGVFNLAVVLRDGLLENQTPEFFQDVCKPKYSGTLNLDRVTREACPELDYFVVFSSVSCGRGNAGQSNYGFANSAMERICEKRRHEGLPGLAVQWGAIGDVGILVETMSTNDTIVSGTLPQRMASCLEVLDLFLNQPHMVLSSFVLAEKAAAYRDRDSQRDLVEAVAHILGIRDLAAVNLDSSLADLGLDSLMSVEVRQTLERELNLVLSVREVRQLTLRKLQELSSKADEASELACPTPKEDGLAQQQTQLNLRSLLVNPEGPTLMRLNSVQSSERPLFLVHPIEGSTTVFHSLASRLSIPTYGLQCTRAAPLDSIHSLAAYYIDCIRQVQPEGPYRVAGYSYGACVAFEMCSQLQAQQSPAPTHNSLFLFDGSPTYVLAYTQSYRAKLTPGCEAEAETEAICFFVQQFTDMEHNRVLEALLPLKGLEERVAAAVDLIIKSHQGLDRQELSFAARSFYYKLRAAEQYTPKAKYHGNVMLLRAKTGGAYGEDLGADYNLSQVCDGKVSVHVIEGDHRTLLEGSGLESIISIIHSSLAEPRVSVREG
Sequence of Disintegrin and metalloproteinase domain-containing protein 17 (P78536 whole entry, the tested form may be a part): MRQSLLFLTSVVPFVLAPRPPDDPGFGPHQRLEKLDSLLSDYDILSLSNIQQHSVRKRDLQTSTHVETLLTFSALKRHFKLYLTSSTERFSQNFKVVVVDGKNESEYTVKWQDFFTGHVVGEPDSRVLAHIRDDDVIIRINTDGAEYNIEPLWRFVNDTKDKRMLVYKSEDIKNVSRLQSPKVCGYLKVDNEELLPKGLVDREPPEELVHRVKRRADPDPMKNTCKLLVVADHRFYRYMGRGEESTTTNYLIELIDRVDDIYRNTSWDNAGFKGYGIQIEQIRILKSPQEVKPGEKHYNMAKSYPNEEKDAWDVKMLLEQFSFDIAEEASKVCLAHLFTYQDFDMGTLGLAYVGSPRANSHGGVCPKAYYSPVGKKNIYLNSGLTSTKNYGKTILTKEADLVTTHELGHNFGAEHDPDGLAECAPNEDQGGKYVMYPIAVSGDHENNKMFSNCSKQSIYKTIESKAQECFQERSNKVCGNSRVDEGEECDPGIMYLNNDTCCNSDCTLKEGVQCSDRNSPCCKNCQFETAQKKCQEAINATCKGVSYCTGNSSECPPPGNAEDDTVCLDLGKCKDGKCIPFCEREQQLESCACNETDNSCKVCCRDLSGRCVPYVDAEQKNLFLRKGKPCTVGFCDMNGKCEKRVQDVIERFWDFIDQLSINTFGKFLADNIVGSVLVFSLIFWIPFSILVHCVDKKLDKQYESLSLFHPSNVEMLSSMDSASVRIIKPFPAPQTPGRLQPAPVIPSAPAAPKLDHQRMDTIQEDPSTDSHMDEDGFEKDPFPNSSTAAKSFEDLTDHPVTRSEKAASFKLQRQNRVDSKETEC
Sequence of COUP transcription factor 2 (P24468 whole entry): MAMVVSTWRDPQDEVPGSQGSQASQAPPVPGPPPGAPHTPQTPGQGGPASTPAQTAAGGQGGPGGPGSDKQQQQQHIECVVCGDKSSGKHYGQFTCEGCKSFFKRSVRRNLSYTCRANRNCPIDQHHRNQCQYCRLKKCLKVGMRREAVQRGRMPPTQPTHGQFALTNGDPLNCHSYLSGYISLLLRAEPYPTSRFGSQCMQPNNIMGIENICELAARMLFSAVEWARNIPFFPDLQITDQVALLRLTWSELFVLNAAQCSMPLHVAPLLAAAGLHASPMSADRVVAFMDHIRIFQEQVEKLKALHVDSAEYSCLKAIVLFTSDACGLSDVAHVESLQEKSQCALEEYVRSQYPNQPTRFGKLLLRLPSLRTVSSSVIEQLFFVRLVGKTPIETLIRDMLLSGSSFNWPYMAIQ
Sequence of Protein Wnt-3a (P27467 whole entry): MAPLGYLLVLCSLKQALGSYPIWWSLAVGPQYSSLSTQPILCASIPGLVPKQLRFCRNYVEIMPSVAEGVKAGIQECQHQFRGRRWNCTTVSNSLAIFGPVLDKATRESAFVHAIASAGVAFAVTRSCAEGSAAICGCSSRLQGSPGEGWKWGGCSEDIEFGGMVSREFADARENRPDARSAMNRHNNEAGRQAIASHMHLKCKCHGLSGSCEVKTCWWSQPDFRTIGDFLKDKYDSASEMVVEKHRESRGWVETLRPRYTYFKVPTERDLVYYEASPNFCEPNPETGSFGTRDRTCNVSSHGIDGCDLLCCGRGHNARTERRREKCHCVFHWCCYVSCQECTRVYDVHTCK
Sequence of Protein Tat (P04608 whole entry): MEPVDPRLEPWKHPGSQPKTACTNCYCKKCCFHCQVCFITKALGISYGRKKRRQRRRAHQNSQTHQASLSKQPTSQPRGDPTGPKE

With `Cc1ccc(NC(=O)c2[nH]cnc2C(=O)N[C@@H](CCCCNC(=O)OC(C)(C)C)C(=O)OC(C)(C)C)cc1`, the figures for the 50% effective concentration (EC50) (in test [1]; in the test with Streptococcus; on Streptokinase A) were 5.58 µM (active), 7.99 µM (active) and > 150 µM (not active), respectively. Moreover, the IC50 in test [2] was > 69.5 µM (inactive); in test [3] it was > 7.72 µM (active); at Fatty acid synthase [4] it was 2.47 µM (active); on Fatty acid synthase [5], 1.09 µM (active).

For `CC(=O)Oc1cccc(N2C(=O)CC(Nc3ccc(N4CCOCC4)cc3)C2=O)c1` (centres undefined), at Protein Tat, the IC50 is 10.5 µM (inconclusive).

For `O=C(NCC1CCCO1)c1ccc(NC(=O)C2CCCCC2C(=O)O)cc1` (centres undefined), the Ki (usually the dissociation constant of the complex between target and ligand, obtained from inhibition or displacement) at fMet-Leu-Phe receptor is > 66.7 µM (inactive).

With `CNC(=O)NC(=O)CSc1nc(O)c(C#N)c(-c2cccs2)n1`, the IC50 in the test “cells [6]” is > 138 µM (inactive).

Regarding `CCOC(=O)C1CCCN(Cc2nc(N)nc(Nc3ccc(Cl)cc3)n2)C1` (centres undefined), in test [7], the IC50 was > 20 µM (inactive).

Turning to `O=C(C1=C(O)C(=O)N(Cc2ccccc2)C1c1ccncc1)c1ccco1` (centres undefined), the Ki at fMet-Leu-Phe receptor was 13.6 µM (active).

For `Cc1nn(C)c(C(=O)NCc2ccc(Cl)cc2)c1Cl`, the IC50 in test [8] was 14 µM (inactive); on Protein Wnt-3a it was 1.92 µM (active); at Galanin receptor type 3, 0.158 µM (active). Moreover, the AC50 (as a rule, the concentration at which the activity in the assay is half-maximal) in [9] is 49.8 µM (active); in [10], 6.29 µM (active); in test [12], 1.74 µM (active). The EC50 (commonly the concentration needed to bring the measured effect to its halfway point) in the test “cells [11]” is > 29.9 µM (inactive).
